From patent EP0099286B1, “Compound containing a tripeptide sequence of the threonyl-lysyl proline-type, or similar, useful as an anti-inflammatory, anti-allergic or antalgesic agent” (INSTITUT PASTEUR DE LILLE, priority 1982, dated 1987)
Residues, ends and D or L forms follow the SMILES beside them.

How the values were obtained:
macrophages [1] = experiment: Inhibition of macrophage activity (general); format: cell-based; details: for propriétés au terme des mêmes tests: same tests as for the tripeptide
Source text: (§1) Selon des tests effectués par les méthodes décrites dans l'article cité plus haut de "Immunology Letters", la L'thréonyl-L-lysyl-L-proline s'est révélée atoxique pour les cellules et inhibitrice non seulement de la libération, mais également de la synthèse de la β-glucuronidase lysosomiale. En présence du peptide, le taux intracellulaire de cette enzyme décroît également. La L-thréonyl-L-lysyl-L-proline inhibe également la stimulation des macrophages de patients allergiques par l'allergène correspondant, lorsqu'ils ont été préincubés en présence du peptide. Cette dépression est très significative (50 à 70%) dans des essais in vitro. La thréonyl-L-lysyl-L-proline présente un pouvoir inhibiteur d'environ 60% aux concentrations de 200 nanogrammes à 20 picogrammes, ce pouvoir inhibiteur étant même de 50% à 2 picogrammes. Cette inhibition par le peptide se manifeste aussi dans des essais d'activation de macrophages par des réactions (IgE)-(Anti-IgE), que ces macrophages aient été incubés auparavant in vitro en présence du peptide, ou obtenus à partir d'animaux auxquels le peptide avait antérieurement été administré par voie intraveineuse (chez le rat, à des doses de 10 µg, trois heures avant le prélèvement des cellules). La libération d'anion superoxyde par les macrophages de rats est également inhibée par le tripeptide en question. […] Le peptide administré au rat induit également une inhibition de l'anaphylaxie cutanée passive provoquée chez l'animal par les administrations successives d'un antigène et de l'antisérum correspondant.

cellules = experiment: Toxicity for the cells; format: cell-based; details: methods of the cited Immunology Letters article
Source text: (§2) Selon des tests effectués par les méthodes décrites dans l'article cité plus haut de "Immunology Letters", la L'thréonyl-L-lysyl-L-proline s'est révélée atoxique pour les cellules et inhibitrice non seulement de la libération, mais également de la synthèse de la β-glucuronidase lysosomiale. En présence du peptide, le taux intracellulaire de cette enzyme décroît également. La L-thréonyl-L-lysyl-L-proline inhibe également la stimulation des macrophages de patients allergiques par l'allergène correspondant, lorsqu'ils ont été préincubés en présence du peptide. Cette dépression est très significative (50 à 70%) dans des essais in vitro. La thréonyl-L-lysyl-L-proline présente un pouvoir inhibiteur d'environ 60% aux concentrations de 200 nanogrammes à 20 picogrammes, ce pouvoir inhibiteur étant même de 50% à 2 picogrammes. Cette inhibition par le peptide se manifeste aussi dans des essais d'activation de macrophages par des réactions (IgE)-(Anti-IgE), que ces macrophages aient été incubés auparavant in vitro en présence du peptide, ou obtenus à partir d'animaux auxquels le peptide avait antérieurement été administré par voie intraveineuse (chez le rat, à des doses de 10 µg, trois heures avant le prélèvement des cellules). La libération d'anion superoxyde par les macrophages de rats est également inhibée par le tripeptide en question. […]

[2] = tested on: β-glucuronidase lysosomiale; experiment: Release and synthesis of lysosomal β-glucuronidase by macrophages; format: cell-based
Source text: as §1

[3] = tested on: macrophages de patients allergiques; experiment: Stimulation of macrophages of allergic patients by the corresponding allergen, in vitro; format: cell-based
Source text: D'autre part, les macrophages alvéolaires de sujets allergiques stimulés par l'allergène correspondant sont également inhibés de manière significative (50 à 60%) s'ils ont été péalablement incubés avec des produits de l'hydrolyse des IgG par les protéases parasitaires.
Selon des tests effectués par les méthodes décrites dans l'article cité plus haut de "Immunology Letters", la L'thréonyl-L-lysyl-L-proline s'est révélée atoxique pour les cellules et inhibitrice non seulement de la libération, mais également de la synthèse de la β-glucuronidase lysosomiale. En présence du peptide, le taux intracellulaire de cette enzyme décroît également. La L-thréonyl-L-lysyl-L-proline inhibe également la stimulation des macrophages de patients allergiques par l'allergène correspondant, lorsqu'ils ont été préincubés en présence du peptide. Cette dépression est très significative (50 à 70%) dans des essais in vitro. La thréonyl-L-lysyl-L-proline présente un pouvoir inhibiteur d'environ 60% aux concentrations de 200 nanogrammes à 20 picogrammes, ce pouvoir inhibiteur étant même de 50% à 2 picogrammes. […]

macrophages [4] = experiment: Macrophage activation by (IgE)-(Anti-IgE) reactions, macrophages pre-incubated in vitro with the peptide; format: cell-based; details: macrophages incubated beforehand in vitro with the peptide
Source text: as §2

macrophages [5] = experiment: Macrophage activation by (IgE)-(Anti-IgE) reactions, macrophages from animals given the peptide intravenously; format: in vivo; details: rat, intravenous, 10 µg, three hours before cell collection
Source text: as §2

macrophages de rats = experiment: Superoxide anion release by macrophages; format: cell-based
Source text: as §2

mastocytes = experiment: Mast cell degranulation in vitro; format: cell-based, rats; details: pre-incubated with peptide; stimulants polymyxine or phytohémagglutinine
[6] = tested on: anaphylaxie cutanée passive; experiment: Passive cutaneous anaphylaxis; format: in vivo; details: rat; provoked by successive administration of antigen and corresponding antiserum
Source text: as §2

macrophages [7] = details: macrophages challenged simultaneously by an antigen and the peptide; cited from earlier work

N=C(N)NCCC[C@H](NC(=O)[C@@H]1CCCN1C(=O)[C@@H](N)CCCCN)C(=O)O [L-lysyl-L-prolyl-L-arginine, reference compound] (H-Lys-Pro-Arg-OH)
activité à l'égard de l'activité des macrophages (macrophages [1]): n'est pas active

C[C@@H](O)[C@H](N)C(=O)N[C@@H](CCCCN)C(=O)N1CCC[C@H]1C(=O)O [L-thréonyl-L-lysyl-L-proline] (H-Thr-Lys-Pro-OH)
activité à l'égard de l'activité des macrophages (macrophages [1]): activité inhibitrice semblable | toxicité pour les cellules (cellules): atoxique | libération de la β-glucuronidase lysosomiale [2]: inhibitrice | synthèse de la β-glucuronidase lysosomiale [2]: inhibitrice | taux intracellulaire de cette enzyme ([2]; β-glucuronidase, in presence of the peptide): décroît | pouvoir inhibiteur ([3]; 2 picogrammes): 50% | pouvoir inhibiteur ([3]; concentrations de 200 nanogrammes à 20 picogrammes): ~60% | inhibition de l'activation de macrophages par des réactions (IgE)-(Anti-IgE) (macrophages [4]): inhibition | inhibition de l'activation de macrophages par des réactions (IgE)-(Anti-IgE) (macrophages [5]): inhibition | libération d'anion superoxyde par les macrophages de rats (macrophages de rats): inhibée | dégranulation des mastocytes (mastocytes): inhibition sensible | inhibition de l'anaphylaxie cutanée passive [6]: inhibition | propriété d'activer les macrophages (macrophages [7]): abolition

C[C@@H](O)[C@H](N)C(=O)N[C@@H](CCCCN)C(=O)N1CCC[C@H]1C(N)=O [dérivé amidé, amide de la thréonyl-lysylproline] (H-Thr-Lys-Pro-NH2)
propriétés au terme des mêmes tests (macrophages [1]): essentiellement les mêmes propriétés

CC(=O)N[C@H](C(=O)N[C@@H](CCCCN)C(=O)N1CCC[C@H]1C(=O)O)[C@@H](C)O [dérivé N-acétylé] (Ac-Thr-Lys-Pro-OH)
propriétés au terme des mêmes tests (macrophages [1]): essentiellement les mêmes propriétés
